Assay results: ChEMBL document CHEMBL5614404, “Optimization of potent, broad-spectrum, and specific anti-influenza compounds targeting RNA polymerase PA-PB1 heterodimerization” (Eur J Med Chem, 2024)

Key:
[1] = biological target: T1, RNA-directed RNA polymerase (Influenza A virus (strain A/Puerto Rico/8/1934 H1N1), UniProt P03428+P03431+P03433); test: Inhibition of Influenza A virus RdRp transfected in HEK293T cells co-expressing PA/PB1/PB2/NP/firefly luciferase/Renilla luciferase assessed as impaired nuclear import preincubated for 4 hrs followed by medium replacement with compound measured after 20 hrs by minireplicon assay; type: cell-based
[2] = test system: Influenza A virus; test: Antiviral activity against Influenza A virus PR/8/34 infected in human A549 cells assessed as reduction in viral progeny preincubated for 1 hr followed by media replacement with compound measured after 23 hrs by virus yeild reduction assay; type: functional, organism-based; details: for EC50: PR/8/34, A549; for Activity: time 24.0 hrs
[3] = test system: Influenza A virus; test: Antiviral activity against Oseltamivir-resistant Influenza A virus Parma/24/09 (H1N1) infected in MDCK cells incubated for 48 hrs by plaque reduction assay; type: functional, organism-based
[4] = biological target: T1, RNA-directed RNA polymerase; test: Inhibition of Influenza A virus RdRp transfected in HEK293T cells co-expressing PA/PB1/PB2/NP/firefly luciferase/Renilla luciferase preincubated for 4 hrs followed by medium replacement with compound measured after 20 hrs by minireplicon assay; type: cell-based
[5] = test system: Influenza A virus; test: Antiviral activity against Amantadine-resistant Influenza A virus California/07/2009 (H1N1) clinical isolate infected in MDCK cells expressing ST6Gal by crystal violet staining based plaque reduction assay; type: functional, organism-based
[6] = test system: Influenza A virus; test: Antiviral activity against Amantadine/Oseltamivir-resistant Influenza A virus Denmark/528/2009 (H1N1) clinical isolate infected in MDCK cells expressing ST6Gal by crystal violet staining based plaque reduction assay; type: functional, organism-based
[7] = test system: Influenza A virus; test: Antiviral activity against Amantadine/Oseltamivir-resistant Influenza A virus Denmark/528/2009 (H1N1) infected in MDCK cells by plaque reduction assay; type: functional, organism-based
[8] = test system: Influenza A virus; test: Antiviral activity against Amantadine/Oseltamivir-resistant Influenza A virus Washington/29/2009 (H1N1) infected in MDCK cells by plaque reduction assay; type: functional, organism-based
[9] = test system: Influenza B virus; test: Antiviral activity against Amantadine-resistant/Oseltamivir-sensitive Influenza B virus Wisconsin/01/2010 infected in MDCK cells by plaque reduction assay; type: functional, organism-based; details: Wisconsin/01/2010, MDCK
[10] = test system: Influenza A virus; test: Antiviral activity against Amantadine-resistant/Oseltamivir-sensitive Influenza A virus Switzerland/9715293/2013 (H3N2) infected in MDCK cells by plaque reduction assay; type: functional, organism-based
[11] = test system: Influenza A virus; test: Antiviral activity against Amantadine/Oseltamivir-resistant Influenza A virus North Carolina/39/2009 (H1N1) infected in MDCK cells by plaque reduction assay; type: functional, organism-based
[12] = test system: Influenza A virus; test: Antiviral activity against Amantadine/Oseltamivir-resistant Influenza A virus Texas/04/2009 (H1N1) infected in MDCK cells by plaque reduction assay; type: functional, organism-based
[13] = test system: Influenza A virus; test: Antiviral activity against Amantadine-resistant/Oseltamivir-sensitive Influenza A virus California/07/2009 (H1N1) infected in MDCK cells by plaque reduction assay; type: functional, organism-based
[14] = test system: Influenza A virus; test: Antiviral activity against Amantadine-resistant/Oseltamivir-sensitive Influenza A virus WSN/1933 (H1N1) infected in MDCK cells by plaque reduction assay; type: functional, organism-based

## N#Cc1ccc(C(=O)Nc2sc3c(c2C(=O)Nc2ccc(C(F)(F)F)cc2)CCCCC3)cc1
[1]
  EC50: > 10000 nM

## O=C(Nc1sc2c(c1C(=O)Nc1ccccc1O)CCCCC2)c1ccc([N+](=O)[O-])cc1O
[2]
  EC50: 87 nM
  Activity: Dose-Dependent Effect
[1]
  EC50: 130 nM
[3]
  EC50: 81 nM

## O=C(Nc1sc2c(c1C(=O)Nc1ccc(F)cc1)CCCCC2)c1ccccc1O
[4]
  IC50: 470 nM

## N#Cc1ccc(C(=O)Nc2sc3c(c2C(=O)Nc2ccccc2O)CCCCC3)cc1
[2]
  EC50: 140 nM
  Activity: Dose-Dependent Effect
[1]
  EC50: 32 nM
[3]
  EC50: 280 nM

## NC(=O)c1ncn([C@@H]2O[C@H](CO)[C@@H](O)[C@H]2O)n1 [RIBAVIRIN]
[1]
  EC50: 21700 nM
[3]
  EC50: 22000 nM

## O=C(Nc1sc2c(c1C(=O)Nc1nccs1)CCCCC2)c1ccccc1O
[4]
  IC50: 330 nM

## O=C(Nc1sc2c(c1C(=O)Nc1ccc(Cl)cc1)CCCCC2)c1ccccc1O
[4]
  IC50: 1000 nM

## C[C@@H](c1ccccc1)n1nnnc1[C@H](c1ccsc1)N1CCC(n2c(=O)[nH]c3ccccc32)CC1
[5]
  EC50: 600 nM
[6]
  EC50: 600 nM

## O=C(Nc1sc2c(c1C(=O)Nc1ccccn1)CCCCC2)c1ccccc1O
[4]
  IC50: 2800 nM

## NC(=O)c1nc(F)cnc1O
[2]
  EC50: 7930 nM

## O=C1C(c2ncc([N+](=O)[O-])s2)CC[C@@H]2CCCC[C@@H]12 (some centres not stated)
[7]
  EC50: 930 nM
[8]
  EC50: 930 nM
[9]
  EC50: 930 nM
[10]
  EC50: 930 nM
[11]
  EC50: 930 nM
[12]
  EC50: 930 nM
[13]
  EC50: 930 nM
[14]
  EC50: 930 nM

## O=C(Nc1sc2c(c1C(=O)Nc1ccccn1)CCCCC2)c1ccc([N+](=O)[O-])cc1
[4]
  IC50: 270 nM
